This is an account of results in PubChem BioAssay (NCI).

Among the test systems are ACHN renal; HOP-62 NSCLC; HS 578T breast; MCF7 breast; MOLT-4 leukemia; RXF 393 renal; SNB-75 CNS; T-47D breast.
Experiment in all cases: NCI-60 cell line screen, 48 h

Where “and” joins values, the source holds several entries; their conditions need not be identical. Equal entries are not always repeated.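 Growth conditions: 96-well plates. Treatment: test compound, 48 hours, 5 concentrations. Analysis: linear interpolation between bracketing concentrations; unreached endpoints set to highest concentration. At the GI50, growth is halved. TGI: concentration producing complete growth inhibition.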 A value given as a limit tells only on which side of the number the result lay.

Turning to `O=C(/C=C/c1ccco1)Nc1ncc(Cc2ccc(F)cc2)s1`, the GI50 in the test on ACHN renal was 0.0749 µM; with HOP-62 NSCLC it was 0.145 µM; in the test with HS 578T breast, 0.124 µM; in the test with MCF7 breast, 0.0612 µM; with MOLT-4 leukemia, 0.0825 µM; in the test with RXF 393 renal, 0.122 µM. For the same compound, the GI50 in the test with SNB-75 CNS was 0.0547 µM; in the test on T-47D breast, 0.03 µM. Moreover, the TGI with ACHN renal is more than 100 µM; with HOP-62 NSCLC, more than 100 µM; in the test on HS 578T breast it was more than 100 µM; in the test on MCF7 breast, more than 100 µM; in the test with MOLT-4 leukemia, more than 100 µM; in the test with RXF 393 renal, 0.593 µM. The TGI in the test with SNB-75 CNS is 0.706 µM; with T-47D breast, more than 100 µM.
For `Oc1ccccc1-n1c(-c2ccccc2)ccc1-c1ccccc1`, the GI50 in the test on ACHN renal was 9.13 µM; in the test on HOP-62 NSCLC, 11.3 µM; with HS 578T breast it was 14 µM; in the test with MCF7 breast, 5.08 µM; in the test on MOLT-4 leukemia it was 3.81 µM; with RXF 393 renal it was 7.93 µM. In addition, the values for the GI50 with SNB-75 CNS and with T-47D breast were 4.46 µM and 4.12 µM, respectively. For the same compound, the TGI is 21.2 µM with ACHN renal; 24.2 µM in the test on HOP-62 NSCLC; more than 100 µM in the test on HS 578T breast; 16.5 µM in the test on MCF7 breast; 16.8 µM in the test on MOLT-4 leukemia; 23 µM in the test with RXF 393 renal. For the same compound, the figures for the TGI in the test with SNB-75 CNS and with T-47D breast were 21.5 µM and 32.9 µM, respectively.
With `COc1ccc(C(Nc2ncccn2)c2cc3c(cc2O)OCO3)cc1` (centres undefined), the TGI is more than 100 µM in the test with ACHN renal; 54.5 µM in the test with HOP-62 NSCLC; 52.4 µM with HS 578T breast; 77.3 µM with MCF7 breast; 82 µM in the test with MOLT-4 leukemia; 36.3 µM in the test with RXF 393 renal. The TGI with SNB-75 CNS is 22.7 µM; in the test with T-47D breast, 28 µM.
Turning to `CN(Cc1cnc2nc(N)nc(N)c2n1)c1ccc(C(=O)NC(CCC(=O)O)C(=O)O)cc1` (centres undefined), the GI50 is 0.292 µM with ACHN renal; 0.394 µM in the test with HOP-62 NSCLC; more than 100 µM in the test with HS 578T breast; 0.389 µM in the test on MOLT-4 leukemia; more than 100 µM with SNB-75 CNS; more than 100 µM in the test on T-47D breast. The TGI with ACHN renal, in the test with HOP-62 NSCLC, in the test with HS 578T breast, in the test with MCF7 breast, in the test with MOLT-4 leukemia and in the test with RXF 393 renal was more than 100 µM each time. In addition, the TGI in the test on SNB-75 CNS and in the test with T-47D breast was more than 100 µM each time.
Regarding `COc1ccc2c3c(c(OCCCN(C)C)nc2c1)-c1ccc(Cl)cc1C3=O`, the GI50 in the test on ACHN renal was 1.26 µM; in the test with HOP-62 NSCLC, 7.71 µM; in the test with HS 578T breast, 13.3 µM; in the test with MCF7 breast, 1.27 µM; with MOLT-4 leukemia, 0.833 µM; with RXF 393 renal it was 7.24 µM. The GI50 in the test with SNB-75 CNS was 1.55 µM; in the test on T-47D breast, 12.5 µM. Moreover, the TGI in the test on ACHN renal is 4.26 µM; in the test on HOP-62 NSCLC it was 25.3 µM; in the test with HS 578T breast, 34.3 µM; in the test with MCF7 breast, 13 µM; with MOLT-4 leukemia, 38.2 µM; with RXF 393 renal it was 20.1 µM. For the same compound, the results for the TGI with SNB-75 CNS and in the test on T-47D breast were 18.3 µM and 48.3 µM, respectively.
Consider `Cn1cnc([N+](=O)[O-])c1Sc1ncnc2c1ncn2C1OC(CO)C(O)C1O` (centres undefined), for which the GI50 was 25.7 µM in the test with ACHN renal; 2 µM in the test on HOP-62 NSCLC; 27.8 µM in the test with HS 578T breast; 1.79 µM in the test on MCF7 breast; 8.32 µM with MOLT-4 leukemia; 24.6 µM in the test with RXF 393 renal. The GI50 with SNB-75 CNS was 27.7 µM; in the test on T-47D breast it was 5.01 µM. The TGI in the test with ACHN renal is more than 100 µM; in the test on HOP-62 NSCLC it was more than 100 µM; in the test with HS 578T breast it was more than 100 µM; in the test on MCF7 breast, more than 100 µM; with MOLT-4 leukemia, 64.5 µM; in the test on RXF 393 renal, more than 100 µM. For the same compound, the TGI with SNB-75 CNS and in the test with T-47D breast was more than 100 µM throughout.
For `CC(C)(C)CC(C)(C)c1ccc(OCCOCCSC(=N)N)cc1`, the GI50 in the test with ACHN renal is 1.72 µM; in the test with HOP-62 NSCLC, 1.87 µM; in the test with HS 578T breast, 2.28 µM; in the test on MCF7 breast, 1.51 µM; in the test on MOLT-4 leukemia, 2.35 µM; with RXF 393 renal, 1.78 µM. The results for the GI50 in the test with SNB-75 CNS and with T-47D breast were 1.37 µM and 1.68 µM, respectively. For the same compound, the TGI with ACHN renal is 3.22 µM; with HOP-62 NSCLC, 3.36 µM; in the test on HS 578T breast, 6.14 µM; with MCF7 breast, 3.22 µM; in the test with MOLT-4 leukemia, 6.17 µM; in the test on RXF 393 renal, 3.59 µM. The TGI in the test with SNB-75 CNS was found to be 3.85 µM; with T-47D breast it was 3.54 µM.
On to `CN(C)c1ccc(/C=C/c2ccnc3ccccc23)cc1`, for which the GI50 with ACHN renal was 5.58 µM; in the test with HOP-62 NSCLC, 3.34 µM; in the test on HS 578T breast it was 3.67 µM; with MCF7 breast it was 0.922 µM; in the test on MOLT-4 leukemia it was 3.59 µM; in the test on RXF 393 renal it was 13.4 µM. Also, the GI50 with SNB-75 CNS was 2.41 µM; in the test on T-47D breast it was 2.57 µM. The TGI was more than 100 µM in the test with ACHN renal; > 100 µM and 16.6 µM with HOP-62 NSCLC; 57 µM and > 30.1 µM in the test with HS 578T breast; > 100 µM and 44.4 µM in the test with MCF7 breast; 43.6 µM with MOLT-4 leukemia; more than 100 µM in the test with RXF 393 renal. For the same compound, the TGI in the test on SNB-75 CNS was > 100 µM and 11.9 µM; in the test on T-47D breast it was > 100 µM and 63.8 µM.
With `FC(F)(F)c1ccc(-c2cnc(Br)nc2NC2CCCCCC2)cc1`, the GI50 with ACHN renal is more than 100 µM; in the test on HOP-62 NSCLC, more than 100 µM; with HS 578T breast, more than 100 µM; in the test on MCF7 breast it was 19.7 µM; in the test with MOLT-4 leukemia it was 41 µM; in the test on RXF 393 renal it was 24.9 µM. In addition, the results for the GI50 in the test with SNB-75 CNS and with T-47D breast were more than 100 µM and 19.6 µM, respectively. In addition, the TGI with ACHN renal, in the test on HOP-62 NSCLC, with HS 578T breast, in the test with MCF7 breast, in the test on MOLT-4 leukemia and in the test on RXF 393 renal was more than 100 µM in each case. The TGI in the test with SNB-75 CNS and in the test with T-47D breast was more than 100 µM each time.
